Results published in patent US9221763B2, “Process for preparing biphenyl imidazole compounds” (Theravance Biopharma R&D IP, LLC, priority 2009, dated 2015).

Assays:
[1] = Thermogravimetric analysis (TGA); format: physicochemical; conditions: crystalline solid; from room temperature to 150.0° C.
[2] = Differential scanning calorimetry (DSC) thermal analysis; format: physicochemical; conditions: crystalline solid; linear heating ramp of 10° C./min from 22° C. to 250° C.
Experimental: Differential scanning calorimetry (DSC) was performed using a TA Instruments Model Q-100 module with a Thermal Analyst controller. Data were collected and analyzed using TA Instruments Thermal Solutions software. A 2.05 mg sample of the crystalline compound of Example 1 was accurately weighed into a covered aluminum pan. After a 5 minute isothermal equilibration period at 22° C., the sample was heated using a linear heating ramp of 10° C./min from 22° C. to 250° C.
A 1.12 mg sample of the crystalline compound of Example 2 was similarly evaluated.

Row | SMILES | loss of weight (residual moisture or solvent), TGA trace [1] [%] | thermal stability: no thermal decomposition below (DSC thermograph) [2] [°C]
1 | CCOc1nc(CC)c(CN)n1Cc1ccc(-c2ccccc2C(=O)OC(C)(C)C)cc1F [Example 1, 4′-(5-aminomethyl-2-ethoxy-4-ethylimidazol-1-ylmethyl)-3′-fluorobiphenyl-2-carboxylic acid t-butyl ester] | < 0.5 | ≥ 150.0
2 | CCOc1nc(CC)c(CNC(=O)[C@H](CC(C)C)SC(C)=O)n1Cc1ccc(-c2ccccc2C(=O)O)cc1F [Example 2, 4′-{5-[((S)-2-acetylsulfanyl-4-methylpentanoylamino)methyl]-2-ethoxy-4-ethylimidazol-1-ylmethyl}-3′-fluorobiphenyl-2-carboxylic acid] |  | ≥ 150.0
